Columns and labels:
female CD-1 mice = experiment: Toxicity in mice dosed by gavage; type: in vivo, mouse (female CD-1); conditions: compared with sulforaphane and erucin
Excerpt: The sulfone (erysolin) was more toxic, but even 5-μmol daily doses for 5 days elevated the specific activities of these enzymes in some tissues examined. We therefore conclude that sulforaphane and its analogues not only induce QR in Hepa 1c1c7 murine hepatoma cells but also induce both QR and glutathione transferase activities in a number of murine organs.

[1] = test system: glutathione S-transferase (GST); experiment: Induction of glutathione S-transferase (GST) in mouse tissues after gavage; type: in vivo, mouse (female CD-1)
Experimental: (§1) The compounds were administered to 6week-old female CD1 mice (4 or 5 mice
(§2) per group) by gavage in indicated single daily doses in 0.1 ml of Emulpho
(§3) EL 620P (GAF. Linden, NJ) for 5 days. Cytosols were prepared from the
(§4) tissues 24 hr after the last treatment and assayed for enzyme activities
(§5) (glutathione Stransferase was measured with 1chloro-2,4-dinitrobenzene).
(§6) The specific activities (nmol · min^-1 · mg^-1
(§7) ± SEM) of organs of vehicletreated #control mice were as follows.
(§8) 54 ± 5.8: GST. 439 ± 34. Data are presented as mean ± SEM.

[2] = test system: quinone reductase (QR) in Hepa 1c1c7 murine hepatoma cells; experiment: Induction of QR (inducer potency, CD value) in Hepa 1c1c7 murine hepatoma cells; type: cell-based
Experimental: Assay of Inducer Potency. Inducer activity was measured in Hepa 1c1c7 murine hepatoma cells grown in 96-well microtiter plates (Prochaska and Santamaria, Anal. Biochem. 169:328-336 (1988); Prochaska et al., Proc. Natl. Acad. Sciences USA 89:2394-2398 (1992)). QR activity (based on the formation of the blue-brown reduced tetrazolium dye) was measured with an optical microtiter plate scanner in cell lysates prepared in one plate, and the cell density was determined in the second plate by staining with crystal violet. Quantitative information on specific activity of QR, the inducer potency, and the cytotoxicity of the extract or compound tested is obtained by computer analysis of the absorbances. One unit of inducer activity is defined as the amount that when added to a single microtiter well doubled the QR specific activity. The CD value is the concentration of a compound required to double the quinone reductase specific activity in Hepa 1c1c7 murine hepatoma cells.
Each of the analogs of sulforaphane was tested for the ability to induce QR in murine hepatoma cells by the assay described in Example 1.
Analogs were synthesized and tested in the hepatoma cell assay described in Example 1.

QR (quinone reductase) = experiment: Induction of QR in mouse tissues after gavage; type: in vivo, mouse (female CD-1)
Experimental: as §1, §2, §3, §4, §5, §6, §7, §8

[3] = 5 μmol per mouse per day, gavage, 5 days, forestomach
[4] = 5 μmol per mouse per day, gavage, 5 days, glandular stomach
[5] = 5 μmol per mouse per day, gavage, 5 days, liver
[6] = 5 μmol per mouse per day, gavage, 5 days, lung
[7] = 5 μmol per mouse per day, gavage, 5 days, proximal small intestine
[8] = 5-μmol daily doses for 5 days, some tissues

CS(=O)(=O)CCCCN=C=S [Erysolin]
toxicity in mice (female CD-1 mice): more toxic | Ratio of specific activities (treated/control), GST, Forestomach [1, 3]: 1.45 ± 0.15 | Ratio of specific activities (treated/control), GST, Glandular stomach [1, 4]: 1.94 | Ratio of specific activities (treated/control), GST, Liver [1, 5]: 1.08 ± 0.11 | Ratio of specific activities (treated/control), GST, Lung [1, 6]: 1.09 | Ratio of specific activities (treated/control), GST, Proximal small intestine [1, 7]: 0.87 | elevation of glutathione transferase specific activity [1, 8]: elevated | EC (2-fold QR specific activity) ([2]; Mus musculus, Hepa-1c1c7, read-out: CD value, Table 1, QR induction, Hepa 1c1c7 cells): 0.82 µM | relative potency as inducers of QR ([2]; comparison in words, Table 1): equipotent | activity as inducers compared with sulforaphane and sulforaphene ([2]; in cell culture): less active | Ratio of specific activities (treated/control), QR, Forestomach (QR (quinone reductase); [3]): 1.05 ± 0.21 | Ratio of specific activities (treated/control), QR, Glandular stomach (QR (quinone reductase); [4]): 1.57 ± 0.08 | Ratio of specific activities (treated/control), QR, Liver (QR (quinone reductase); [5]): 1.62 ± 0.09 | Ratio of specific activities (treated/control), QR, Lung (QR (quinone reductase); [6]): 1.00 ± 0.11 | Ratio of specific activities (treated/control), QR, Proximal small intestine (QR (quinone reductase); [7]): 1.22 ± 0.20 | elevation of QR specific activity (QR (quinone reductase); [8]): elevated

From USRE36784E, “Chemoprotective isothiocyanates” (The Johns Hopkins University, priority 1997, dated 2000)
